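Five concentrations, 48 hours, 96-well plates. TGI denotes the concentration required for complete inhibition of growth.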 Where a SMILES comes first, the peptide text is derived from it. The star is where a group is joined. Boc = CC(C)(C)OC(=O)*
Key:
Experiment in all cases: NCI anticancer screen, dose series, 48 h
[1] = tested on: MDA-MB-231 breast
[2] = tested on: SNB-19 CNS
[3] = tested on: NCI-H522 lung
[4] = tested on: HCT-15 colon
[5] = tested on: COLO 205 colon
[6] = tested on: LOX IMVI melanoma
[7] = tested on: OVCAR-4 ovarian
[8] = tested on: SK-MEL-2 melanoma
[9] = tested on: BT-549 breast
[10] = tested on: M14 melanoma
[11] = tested on: MCF7 breast
[12] = tested on: HCC-2998 colon
[13] = tested on: SN12C renal
[14] = tested on: SR leukemia
[15] = tested on: PC-3 prostate
[16] = tested on: A498 renal
[17] = tested on: A549 NSCLC
[18] = tested on: SK-MEL-5 melanoma
[19] = tested on: ACHN renal
[20] = tested on: UO-31 renal
[21] = tested on: SNB-75 CNS
[22] = tested on: MOLT-4 leukemia
[23] = tested on: RPMI-8226 leukemia
[24] = tested on: 786-0 renal
[25] = tested on: SW-620 colon
[26] = tested on: T-47D breast
[27] = tested on: NCI-H460 lung
[28] = tested on: UACC-257 melanoma
[29] = tested on: OVCAR-8 ovarian
[30] = tested on: SF-539 CNS
[31] = tested on: MALME-3M melanoma
[32] = tested on: CAKI-1 renal
[33] = tested on: OVCAR-5 ovarian
[34] = tested on: MDA-MB-435
[35] = tested on: EKVX NSCLC
[36] = tested on: K-562 leukemia
[37] = tested on: U251 CNS
[38] = tested on: NCI-H226 lung
[39] = tested on: SF-268 CNS
[40] = tested on: RXF 393 renal
[41] = tested on: CCRF-CEM leukemia
[42] = tested on: HOP-92 NSCLC
[43] = tested on: SK-MEL-28 melanoma
[44] = tested on: OVCAR-3 ovarian
[45] = tested on: IGROV1 ovarian
[46] = tested on: TK-10 renal
[47] = tested on: HL-60(TB) leukemia
[48] = tested on: HS 578T breast
[49] = tested on: SF-295 CNS
[50] = tested on: NCI/ADR-RES ovarian
[51] = tested on: DU-145 prostate
[52] = tested on: HCT-116 colon
[53] = tested on: KM12 colon
[54] = tested on: MDA-N
[55] = tested on: UACC-62 melanoma
[56] = tested on: HT29 colon
[57] = tested on: NCI-H23 lung
[58] = tested on: SK-OV-3 ovarian
[59] = tested on: HOP-62 NSCLC

## CNN1C(=O)c2c(N)c(C#N)c(-c3ccccc3)c(-c3ccccc3)c2C1=O
[1]
  TGI: > 100 µM
[2]
  TGI: > 100 µM
[3]
  TGI: > 100 µM
[4]
  TGI: > 100 µM
[5]
  TGI: > 100 µM
[6]
  TGI: > 100 µM
[7]
  TGI: > 100 µM
[8]
  TGI: > 100 µM
[9]
  TGI: > 100 µM
[10]
  TGI: > 100 µM
[11]
  TGI: > 100 µM
[12]
  TGI: > 100 µM
[13]
  TGI: > 100 µM
[14]
  TGI: > 100 µM
[15]
  TGI: > 100 µM
[16]
  TGI: > 100 µM
[17]
  TGI: > 100 µM
[18]
  TGI: > 100 µM
[19]
  TGI: > 100 µM
[20]
  TGI: > 100 µM
[21]
  TGI: > 100 µM
[22]
  TGI: > 100 µM
[23]
  TGI: > 100 µM
[24]
  TGI: > 100 µM
[25]
  TGI: > 100 µM
[26]
  TGI: > 100 µM
[27]
  TGI: > 100 µM
[28]
  TGI: > 100 µM
[29]
  TGI: > 100 µM
[30]
  TGI: > 100 µM
[31]
  TGI: > 100 µM
[32]
  TGI: > 100 µM
[33]
  TGI: > 100 µM
[34]
  TGI: > 100 µM
[35]
  TGI: > 100 µM
[36]
  TGI: > 100 µM
[37]
  TGI: > 100 µM
[38]
  TGI: > 100 µM
[39]
  TGI: > 100 µM
[40]
  TGI: > 100 µM
[41]
  TGI: > 100 µM
[42]
  TGI: > 100 µM
[43]
  TGI: > 100 µM
[44]
  TGI: > 100 µM
[45]
  TGI: > 100 µM
[46]
  TGI: > 100 µM
[47]
  TGI: > 100 µM
[48]
  TGI: > 100 µM
[49]
  TGI: > 100 µM
[50]
  TGI: > 100 µM
[51]
  TGI: > 100 µM
[52]
  TGI: > 100 µM
[53]
  TGI: > 100 µM
[54]
  TGI: > 100 µM
[55]
  TGI: > 100 µM

## NC(=O)NC(=O)c1cccc(NC(=O)CI)c1
[1]
  TGI: 0.866 µM
[2]
  TGI: 14.7 µM
[3]
  TGI: < 0.01 µM
[56]
  TGI: 0.0607 µM
[4]
  TGI: 2.06 µM
[5]
  TGI: < 0.01 µM
[6]
  TGI: 0.395 µM
[7]
  TGI: 5.08 µM
[8]
  TGI: 0.837 µM
[9]
  TGI: 2.44 µM
[10]
  TGI: 0.408 µM
[11]
  TGI: 1.56 µM
[12]
  TGI: 0.609 µM
[13]
  TGI: 0.326 µM
[14]
  TGI: 0.416 µM
[15]
  TGI: 1.35 µM
[16]
  TGI: 0.805 µM
[17]
  TGI: 12.4 µM
[18]
  TGI: 0.0382 µM
[19]
  TGI: 1.58 µM
[20]
  TGI: 1.44 µM
[21]
  TGI: 1.75 µM
[23]
  TGI: 0.312 µM
[25]
  TGI: 2.03 µM
[26]
  TGI: 4.3 µM
[27]
  TGI: 0.286 µM
[28]
  TGI: 0.438 µM
[29]
  TGI: 0.188 µM
[30]
  TGI: 0.0701 µM
[57]
  TGI: 2.04 µM
[31]
  TGI: 0.899 µM
[32]
  TGI: 0.662 µM
[33]
  TGI: 2.12 µM
[34]
  TGI: 0.202 µM
[35]
  TGI: 10.4 µM
[36]
  TGI: 1.45 µM
[37]
  TGI: 0.136 µM
[38]
  TGI: 0.201 µM
[39]
  TGI: 0.0717 µM
[40]
  TGI: 2.13 µM
[41]
  TGI: 0.145 µM
[42]
  TGI: 1.58 µM
[43]
  TGI: 7.49 µM
[44]
  TGI: < 0.01 µM
[45]
  TGI: 0.796 µM
[58]
  TGI: 1.06 µM
[59]
  TGI: 1.16 µM
[47]
  TGI: < 0.01 µM
[48]
  TGI: 0.146 µM
[49]
  TGI: 2.68 µM
[50]
  TGI: 5.32 µM
[51]
  TGI: 0.103 µM
[52]
  TGI: 0.106 µM
[53]
  TGI: 18.5 µM
[54]
  TGI: 0.0253 µM
[55]
  TGI: 0.692 µM

## CC(NC(=O)OC(C)(C)C)C(=O)NC(Cc1ccccc1)C(=O)NCC(=O)O (stereo not drawn) (Boc-Ala-Phe-Gly-OH; configuration not given here)
[1]
  TGI: > 100 µM
[2]
  TGI: > 100 µM
[3]
  TGI: > 100 µM
[56]
  TGI: > 100 µM
[4]
  TGI: > 100 µM
[5]
  TGI: > 100 µM
[6]
  TGI: > 100 µM
[8]
  TGI: > 100 µM
[9]
  TGI: > 100 µM
[10]
  TGI: > 100 µM
[11]
  TGI: > 100 µM
[12]
  TGI: > 100 µM
[13]
  TGI: > 100 µM
[14]
  TGI: > 100 µM
[15]
  TGI: > 100 µM
[16]
  TGI: > 100 µM
[17]
  TGI: > 100 µM
[18]
  TGI: > 100 µM
[19]
  TGI: > 100 µM
[20]
  TGI: > 100 µM
[21]
  TGI: > 100 µM
[22]
  TGI: > 100 µM
[23]
  TGI: > 100 µM
[24]
  TGI: > 100 µM
[25]
  TGI: > 100 µM
[26]
  TGI: > 100 µM
[27]
  TGI: > 100 µM
[28]
  TGI: > 100 µM
[29]
  TGI: > 100 µM
[30]
  TGI: > 100 µM
[57]
  TGI: > 100 µM
[31]
  TGI: > 100 µM
[32]
  TGI: > 100 µM
[33]
  TGI: > 100 µM
[34]
  TGI: > 100 µM
[35]
  TGI: > 100 µM
[36]
  TGI: > 100 µM
[37]
  TGI: > 100 µM
[38]
  TGI: > 100 µM
[39]
  TGI: > 100 µM
[40]
  TGI: > 100 µM
[41]
  TGI: > 100 µM
[42]
  TGI: > 100 µM
[43]
  TGI: > 100 µM
[44]
  TGI: > 100 µM
[45]
  TGI: > 100 µM
[58]
  TGI: > 100 µM
[59]
  TGI: > 100 µM
[46]
  TGI: > 100 µM
[47]
  TGI: > 100 µM
[48]
  TGI: > 100 µM
[49]
  TGI: > 100 µM
[50]
  TGI: > 100 µM
[51]
  TGI: > 100 µM
[52]
  TGI: > 100 µM
[53]
  TGI: > 100 µM
[54]
  TGI: > 100 µM
[55]
  TGI: > 100 µM

Source: PubChem BioAssay (NCI)
